Measured values taken from PubChem BioAssay AID256 (DTP/NCI, 2004).
Where “and” joins values, the source holds several entries; their conditions need not be identical. Equal values may be shown once. Inconclusive results and toxic doses are left out. Rule for the calls: active = survival T/C of 150% or more; inactive = T/C below 125% in these data.

Tested on: CD2F1 mice, L1210 leukemia ip, survival T/C
Assay: NCI In Vivo Anticancer Drug Screen. Data for tumor model L1210 Leukemia (intraperitoneal) in CD2F1 (CDF1) mice
Details: higher = longer survival
Procedure, shortened: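 Ratio T/C, where T is the treated-group value and C the vehicle-dosed control value, from mice implanted with a transplantable tumor.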

[1] = endpoint: mean survival time, dose: 50.0 mg/kg/injection, schedule: Q01DX009 (ip), vehicle: saline with Tween-80
[2] = endpoint: mean survival time, dose: 100.0 mg/kg/injection, schedule: Q01DX009 (ip), vehicle: saline with Tween-80
[3] = endpoint: mean survival time, dose: 200.0 mg/kg/injection, schedule: Q01DX009 (ip), vehicle: saline with Tween-80
[4] = endpoint: mean survival time, dose: 100.0 mg/kg/injection, schedule: Q01DX001 (ip), vehicle: saline with Tween-80
[5] = endpoint: mean survival time, dose: 200.0 mg/kg/injection, schedule: Q01DX001 (ip), vehicle: saline with Tween-80
[6] = endpoint: mean survival time, dose: 400.0 mg/kg/injection, schedule: Q01DX001 (ip), vehicle: saline with Tween-80
[7] = endpoint: mean survival time, dose: 25.0 mg/kg/injection, schedule: Q04DX003 (ip), vehicle: saline with Tween-80
[8] = endpoint: mean survival time, dose: 50.0 mg/kg/injection, schedule: Q04DX003 (ip), vehicle: saline with Tween-80
[9] = endpoint: mean survival time, dose: 100.0 mg/kg/injection, schedule: Q04DX003 (ip), vehicle: saline with Tween-80
[10] = endpoint: mean survival time, dose: 200.0 mg/kg/injection, schedule: Q04DX003 (ip), vehicle: saline with Tween-80
[11] = endpoint: mean survival time, dose: 400.0 mg/kg/injection, schedule: Q04DX003 (ip), vehicle: saline with Tween-80
[12] = endpoint: mean survival time, dose: 400.0 mg/kg/injection, schedule: Q01DX009 (ip), vehicle: saline with Tween-80

Measured: T/C

CC(=O)n1c2ccccc2c2ccccc21
inactive: [1] 106 % of control | [2] 109 % of control | [3] 106 % of control

N#CCN(CC#N)c1ccccc1
inactive: endpoint: mean survival time, dose: 1.56 mg/kg/injection, schedule: Q01DX001 (ip), vehicle: other 95 % of control | endpoint: mean survival time, dose: 3.13 mg/kg/injection, schedule: Q01DX001 (ip), vehicle: other 95 % of control | endpoint: mean survival time, dose: 6.25 mg/kg/injection, schedule: Q01DX001 (ip), vehicle: other 98 % of control and 100 % of control

c1ccc(C2=NN(c3ccccc3)C(c3ccccc3)C2NC2CCCCC2)cc1 (stereo unspecified)
inactive: endpoint: mean survival time, dose: 100.0 mg/kg/injection, schedule: Q04DX003 (ip), vehicle: acetone 93 % of control | endpoint: mean survival time, dose: 200.0 mg/kg/injection, schedule: Q04DX003 (ip), vehicle: acetone 92 % of control | endpoint: mean survival time, dose: 400.0 mg/kg/injection, schedule: Q04DX003 (ip), vehicle: acetone 97 % of control

CN(C)CC1CN(C)CC(CN(C)C)C1(O)C(C(=O)N(C)C)c1ccccc1 (stereo unspecified)
inactive: endpoint: mean survival time, dose: 75.0 mg/kg/injection, schedule: Q01DX001 (ip), vehicle: other 98 % of control | endpoint: mean survival time, dose: 150.0 mg/kg/injection, schedule: Q01DX001 (ip), vehicle: other 100 % of control | endpoint: mean survival time, dose: 300.0 mg/kg/injection, schedule: Q01DX001 (ip), vehicle: other 98 % of control

CN(C)c1ccc(C(=C2C=CC(=[N+](C)C)C=C2)c2ccc(N(C)C)cc2)cc1 (tested in a mixture with another compound)
inactive: endpoint: mean survival time, dose: 0.15 mg/kg/injection, schedule: Q01DX009 (ip), vehicle: saline with Tween-80 110 % of control | endpoint: mean survival time, dose: 0.31 mg/kg/injection, schedule: Q01DX009 (ip), vehicle: saline with Tween-80 100 % of control | endpoint: mean survival time, dose: 0.31 mg/kg/injection, schedule: Q01DX009 (ip), vehicle: suspension in saline 97 % of control | endpoint: mean survival time, dose: 0.62 mg/kg/injection, schedule: Q01DX009 (ip), vehicle: saline with Tween-80 105 % of control | endpoint: mean survival time, dose: 0.62 mg/kg/injection, schedule: Q01DX009 (ip), vehicle: suspension in saline 106 % of control | endpoint: mean survival time, dose: 1.25 mg/kg/injection, schedule: Q01DX009 (ip), vehicle: saline with Tween-80 113 % of control | endpoint: mean survival time, dose: 1.25 mg/kg/injection, schedule: Q01DX009 (ip), vehicle: suspension in saline 101 % of control | endpoint: mean survival time, dose: 2.5 mg/kg/injection, schedule: Q01DX009 (ip), vehicle: saline with Tween-80 117 % of control | endpoint: mean survival time, dose: 2.5 mg/kg/injection, schedule: Q01DX009 (ip), vehicle: suspension in saline 106 % of control

CC1CCCCC1NC(=O)c1ccccc1 (stereo unspecified)
inactive: [4] 100 % of control | [5] 98 % of control | [6] 87 % of control

CC1(C)N=C(N)N=C(N)N1c1cc(Cl)cc(CCNC(=O)Nc2ccc(S(=O)(=O)F)cc2)c1
inactive: [4] 92 % of control

O=C(C=C(C(F)(F)F)C(F)(F)F)c1cccc(C(F)(F)F)c1
inactive: [7] 106 % of control | [8] 106 % of control

CCOC(=O)C1C(=O)N(c2ccccc2)C(=O)N1C (stereo unspecified)
inactive: endpoint: mean survival time, dose: 12.5 mg/kg/injection, schedule: Q01DX009 (ip), vehicle: water 94 % of control | endpoint: mean survival time, dose: 25.0 mg/kg/injection, schedule: Q01DX009 (ip), vehicle: water 93 % of control | endpoint: mean survival time, dose: 50.0 mg/kg/injection, schedule: Q01DX009 (ip), vehicle: water 94 % of control | endpoint: mean survival time, dose: 100.0 mg/kg/injection, schedule: Q01DX009 (ip), vehicle: water 98 % of control | endpoint: mean survival time, dose: 200.0 mg/kg/injection, schedule: Q01DX009 (ip), vehicle: water 100 % of control

CCOC(=O)C1C(=O)N(C)C(=O)N1c1ccccc1 (stereo unspecified)
inactive: endpoint: mean survival time, dose: 12.5 mg/kg/injection, schedule: Q01DX009 (ip), vehicle: other 98 % of control | endpoint: mean survival time, dose: 25.0 mg/kg/injection, schedule: Q01DX009 (ip), vehicle: other 90 % of control | endpoint: mean survival time, dose: 50.0 mg/kg/injection, schedule: Q01DX009 (ip), vehicle: other 87 % of control | endpoint: mean survival time, dose: 100.0 mg/kg/injection, schedule: Q01DX009 (ip), vehicle: other 93 % of control | endpoint: mean survival time, dose: 200.0 mg/kg/injection, schedule: Q01DX009 (ip), vehicle: other 87 % of control

CCOn1nc(-c2ccccc2)oc1=O
inactive: endpoint: mean survival time, dose: 100.0 mg/kg/injection, schedule: Q04DX003 (ip), vehicle: other 96 % of control | endpoint: mean survival time, dose: 200.0 mg/kg/injection, schedule: Q04DX003 (ip), vehicle: other 93 % of control | endpoint: mean survival time, dose: 400.0 mg/kg/injection, schedule: Q04DX003 (ip), vehicle: other 116 % of control

CN(C)CCCN=c1c2ccccc2n(C)c2[nH]c(=O)n(C)c(=O)c12
inactive: endpoint: median survival time, dose: 3.75 mg/kg/injection, schedule: Q01DX005 (ip), vehicle: saline 105 % of control | endpoint: median survival time, dose: 7.5 mg/kg/injection, schedule: Q01DX005 (ip), vehicle: saline 109 % of control | endpoint: median survival time, dose: 10.8 mg/kg/injection, schedule: Q01DX005 (ip), vehicle: saline 107 % of control | endpoint: median survival time, dose: 15.0 mg/kg/injection, schedule: Q01DX005 (ip), vehicle: saline 111 % of control and 112 % of control | endpoint: median survival time, dose: 18.0 mg/kg/injection, schedule: Q01DX005 (ip), vehicle: saline 123 % of control | endpoint: median survival time, dose: 30.0 mg/kg/injection, schedule: Q01DX005 (ip), vehicle: saline 116 % of control and 124 % of control | endpoint: median survival time, dose: 50.0 mg/kg/injection, schedule: Q01DX005 (ip), vehicle: saline 119 % of control | endpoint: median survival time, dose: 60.0 mg/kg/injection, schedule: Q01DX005 (ip), vehicle: saline 120 % of control and 101 % of control | endpoint: median survival time, dose: 120.0 mg/kg/injection, schedule: Q01DX005 (ip), vehicle: saline 119 % of control

S=C(S)OCc1ccccc1.[Pt]
inactive: [7] 102 % of control | [8] 102 % of control | [9] 104 % of control | [10] 102 % of control | [11] 104 % of control

O=C(O)CN(CC(=O)O)CC(O)CN(CC(=O)O)CC(=O)O
inactive: endpoint: mean survival time, dose: 100.0 mg/kg/injection, schedule: Q01DX001 (ip), vehicle: saline 98 % of control | endpoint: mean survival time, dose: 200.0 mg/kg/injection, schedule: Q01DX001 (ip), vehicle: saline 105 % of control | endpoint: mean survival time, dose: 400.0 mg/kg/injection, schedule: Q01DX001 (ip), vehicle: saline 93 % of control

CN1CCCC1CCNc1nc(C(Cl)(Cl)Cl)nc2cc(Cl)ccc12 (stereo unspecified)
inactive: [2] 98 % of control | [9] 95 % of control | [3] 98 % of control | [10] 90 % of control | [12] 101 % of control | [11] 100 % of control

C(CCSC1=NCCN1)CSC1=NCCN1
inactive: endpoint: mean survival time, dose: 25.0 mg/kg/injection, schedule: Q04DX002 (ip), vehicle: saline 96 % of control | endpoint: mean survival time, dose: 50.0 mg/kg/injection, schedule: Q04DX002 (ip), vehicle: saline 107 % of control | endpoint: mean survival time, dose: 100.0 mg/kg/injection, schedule: Q04DX002 (ip), vehicle: saline 90 % of control

CCCCCCCCCCCCCCCCCCCCCC(=O)CCCCCCCCCCCCCCCCCCCCC
inactive: [4] 86 % of control | [5] 93 % of control | [6] 101 % of control

COc1cc(OC)c(NC(=O)Nc2ccc(Cl)c(C(F)(F)F)c2)cc1Cl
inactive: [1] 93 % of control | [2] 93 % of control | [3] 93 % of control

CC(C)CCCC(C)C1CCC2C3CCC4CCCCC4(C)C3CCC12C (stereo unspecified)
inactive: [2] 95 % of control | [3] 94 % of control | [12] 105 % of control

CCC1(CC)OC2=C(CC(C#N)(C#N)C(C#N)(C#N)C2)O1
inactive: endpoint: mean survival time, dose: 5.0 mg/kg/injection, schedule: Q04DX003 (ip), vehicle: other 103 % of control | endpoint: mean survival time, dose: 10.0 mg/kg/injection, schedule: Q04DX003 (ip), vehicle: other 92 % of control | endpoint: mean survival time, dose: 20.0 mg/kg/injection, schedule: Q04DX003 (ip), vehicle: other 96 % of control

O=P(OCc1ccccc1)(N(CCCl)CCCl)N1CCCC1 (stereo unspecified)
inactive: endpoint: mean survival time, dose: 128.0 mg/kg/injection, schedule: Q01DX Z (ip), vehicle: saline 101 % of control

O=C1C(CO)=C[C@@H](O)[C@H]2O[C@@H]12
inactive: endpoint: mean survival time, dose: 100.0 mg/kg/injection, schedule: Q04DX003 (ip), vehicle: saline 100 % of control | endpoint: mean survival time, dose: 200.0 mg/kg/injection, schedule: Q04DX003 (ip), vehicle: saline 102 % of control | endpoint: mean survival time, dose: 400.0 mg/kg/injection, schedule: Q04DX003 (ip), vehicle: saline 102 % of control

CN1CCC(CNC(=O)CCCCCCCCC(=O)NCC2(c3ccccc3)CCN(C)CC2)(c2ccccc2)CC1
inactive: endpoint: mean survival time, dose: 1.25 mg/kg/injection, schedule: Q04DX003 (ip), vehicle: saline with Tween-80 95 % of control | endpoint: mean survival time, dose: 2.5 mg/kg/injection, schedule: Q04DX003 (ip), vehicle: saline with Tween-80 94 % of control

O=C1C=CC(=Nc2ccc(Cl)cc2)O1
inactive: [9] 101 % of control | [11] 97 % of control
